Experimental data from patent publication US20160257697A1, “THIOPHENE-SUBSTITUTED TETRACYCLIC COMPOUNDS AND METHODS OFUSE THEREOF FOR THE TREATMENT OF VIRAL DISEASES” (priority 2013, published 2016).
pIC50: −log10 of the molar value. Read-outs that look alike come from different tables or passages of the source.

Legend:
Experiment in all cases: microbe, parasite or virus in culture
Assay type in all cases: cell-based, Hepatitis C virus (HCV)
HCV replicon 2B = details: Replicon Assay A
Summary of the method: (§1)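 HCV RNA levels were calculated from Ct values (minus intercept, divided by slope) of a Neo primer/probe standard curve, with cyclophilin quantified the same way. Cells were seeded at 2000/well and incubated with compound for 3 days in 5% serum and 0.5% DMSO.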

HCV replicon 1A = details: Replicon Assay A
Summary of the method: as §1

HCV replicon 1AY93H = details: Replicon Assay A
Summary of the method: as §1

HCV replicon 1AQ30D = details: Replicon Assay B; for IC50: read-out: 1A Q30D IC50 (nM), replicon 1AQ30D
HCV replicon 1B = details: Replicon Assay B
[1] = Hepatitis C virus, read-out: 2B IC50, HCV replicon 2B
[2] = Hepatitis C virus, HCV replicon 1A
[3] = Hepatitis C virus, read-out: 1A Y93H IC50, HCV replicon 1A Y93H
[4] = Hepatitis C virus, read-out: 1A Q30D IC50, HCV replicon 1A Q30D
[5] = Hepatitis C virus, HCV replicon 1B
[6] = read-out: 1A Y93H IC50, replicon 1AY93H
[7] = read-out: 1A Q30D IC50, replicon 1AQ30D
[8] = replicon 1AY93H, read-out: 1A Y93H IC50
[9] = replicon 1AQ30D, read-out: 1A Q30D IC50

Q: What does the source list for `COC(=O)NC(C(=O)N1CCC[C@H]1c1ncc(-c2ccc3c(c2)cc2n3C(c3ccc(CC(C)(C)OC)s3)Oc3cc(-c4cnc([C@@H]5CCCN5C(=O)[C@@H](NC(=O)OC)C(C)C)[nH]4)cc(F)c3-2)[nH]1)C1CCOC(C)(C)C1` (some centres unmarked) [Compound 848]?
A: pIC50 (HCV replicon 2B; [1]): 10.59; pIC50 (HCV replicon 1A; [2]): 11.54; pIC50 (HCV replicon 1AY93H; [3]): 11.00; pIC50 (HCV replicon 1AQ30D; [4]): 10.07; pIC50 (HCV replicon 1B; [5]): 11.35

Q: With `CCc1ccc(C2Oc3cc(-c4cnc([C@@H]5CCCN5C(=O)[C@@H](NC(=O)OC)C(C)C)[nH]4)cc(F)c3-c3cc4cc(-c5cnc([C@@H]6CCCN6C(=O)[C@@H](NC(=O)OC)C6CCOCC6)[nH]5)ccc4n32)s1` (single isomer, unassigned) [Compound 337] as the compound, how does the pIC50 (HCV replicon 2B; read-out: 2B IC50, replicon 2B) read?
A: 11.41

Q: And the pIC50 (HCV replicon 1A; replicon 1A)?
A: 11.80

Q: What about the pIC50 (HCV replicon 1AY93H; [6]) of the same compound?
A: 11.68

Q: And the pIC50 (HCV replicon 1AQ30D; [7])?
A: 10.58

Q: And the pIC50 (HCV replicon 1B; replicon 1B)?
A: 11.80

Q: With `COC(=O)N[C@H](C(=O)N1CCC[C@@H]1c1cnc(-c2cc(F)c3c(c2)OC(c2ccc(C4(O)CC4)s2)n2c-3cc3cc(-c4ncc([C@@H]5CCCN5C(=O)[C@@H](NC(=O)OC)C(C)C)[nH]4)ccc32)[nH]1)C(C)C` (some centres unmarked) [Compound 61] as the compound, how does the pIC50 (HCV replicon 2B; replicon 2B, read-out: 2B IC50) read?
A: 10.92

Q: What about the pIC50 (HCV replicon 1A; replicon 1A) of the same compound?
A: 11.96

Q: And the pIC50 (HCV replicon 1AY93H; [8])?
A: 10.85

Q: What about the pIC50 (HCV replicon 1AQ30D; [9]) of the same compound?
A: 9.66

Q: What about the pIC50 (HCV replicon 1B; replicon 1B) of the same compound?
A: 11.96

Q: Which results are given for `COC(=O)NC(C(=O)N1CCCC1c1ncc(-c2cc(F)c3c(c2)OC(c2cc4c(s2)CC2(C4)OCCO2)n2c-3cc3cc(-c4cnc(C5CCCN5C(=O)C(NC(=O)OC)C(C)C)[nH]4)ccc32)[nH]1)C(C)C` (mixture of isomers) [Compound 847]?
A: pIC50 (HCV replicon 2B; HCV replicon 2B, read-out: 2B IC50): 9.51; pIC50 (HCV replicon 1A; HCV replicon 1A): 11.42; pIC50 (HCV replicon 1AY93H; HCV replicon 1A Y93H, read-out: 1A Y93H IC50): 9.67; pIC50 (HCV replicon 1AQ30D; HCV replicon 1A Q30D, read-out: 1A Q30D IC50): 8.75; pIC50 (HCV replicon 1B; HCV replicon 1B): 11.30

Q: `COC(=O)N[C@H](C(=O)N1CCC[C@H]1c1ncc(-c2ccc3c(c2)OC(c2cc4ccccc4s2)n2c-3cc3cc(-c4cnc([C@@H]5CCCN5C(=O)[C@@H](NC(=O)OC)C5CCOCC5)[nH]4)ccc32)[nH]1)C1CCOCC1` (single isomer, unassigned) [Compound 263] was tested. Which pIC50 (HCV replicon 2B; read-out: 2B IC50, replicon 2B) did it give?
A: 11.30

Q: And the pIC50 (HCV replicon 1A; replicon 1A)?
A: 11.44

Q: And the pIC50 (HCV replicon 1AY93H; [6])?
A: 11.52

Q: What about the pIC50 (HCV replicon 1AQ30D; [7]) of the same compound?
A: 10.92

Q: What about the pIC50 (HCV replicon 1B; replicon 1B) of the same compound?
A: 11.47

Q: `COC(=O)N[C@H](C(=O)N1CCC[C@H]1c1ncc(-c2cc(F)c3c(c2)OC(c2ccc(C#N)s2)n2c-3cc3cc(-c4cnc([C@@H]5CCCN5C(=O)[C@@H](NC(=O)OC)C(C)C)[nH]4)ccc32)[nH]1)C(C)C` (single isomer, unassigned) [Compound 18] was tested. Which pIC50 (HCV replicon 2B; read-out: 2B IC50, replicon 2B) did it give?
A: 8.46

Q: And the pIC50 (HCV replicon 1A; replicon 1A)?
A: 11.66

Q: And the pIC50 (HCV replicon 1AY93H; [6])?
A: 8.50

Q: And the pIC50 (HCV replicon 1AQ30D; [7])?
A: 7.18

Q: And the pIC50 (HCV replicon 1B; replicon 1B)?
A: 11.52

Q: `COC(=O)NC(C(=O)N1CCC[C@H]1c1ncc(-c2ccc3c(c2)cc2n3C(c3cc4nccnc4s3)Oc3cc(-c4cnc([C@@H]5CCCN5C(=O)[C@@H](NC(=O)OC)C(C)C)[nH]4)cc(F)c3-2)[nH]1)C1C[C@@H](C)O[C@@H](C)C1` (single isomer, unassigned) [Compound 372] was tested. Which pIC50 (HCV replicon 2B; read-out: 2B IC50, replicon 2B) did it give?
A: 11.19

Q: And the pIC50 (HCV replicon 1A; replicon 1A)?
A: 11.66

Q: And the pIC50 (HCV replicon 1AY93H; [6])?
A: 11.29

Q: And the IC50 (HCV replicon 1AQ30D; Hepatitis C virus)?
A: 0.0964 nM

Q: What about the pIC50 (HCV replicon 1B; Hepatitis C virus, replicon 1B) of the same compound?
A: 11.49

Q: With `COC(=O)N[C@H](C(=O)N1CCC[C@@H]1c1ncc(-c2cc(F)c3c(c2)OC(c2ccc(C(C)C)s2)n2c-3cc3cc(-c4c[nH]c([C@@H]5CCCN5C(=O)[C@H](NC(=O)OC)C5C[C@@H](C)O[C@@H](C)C5)n4)ccc32)[nH]1)C(C)C` (some centres unmarked) [Compound 234] as the compound, how does the IC50 (HCV replicon 2B; Hepatitis C virus, read-out: 2B IC50 (nM), replicon 2B) read?
A: 0.02 nM

Q: What about the pIC50 (HCV replicon 1A; replicon 1A) of the same compound?
A: 11.48

Q: What about the IC50 (HCV replicon 1AY93H; Hepatitis C virus, read-out: 1A Y93H IC50 (nM), replicon 1AY93H) of the same compound?
A: 0.004 nM

Q: What about the IC50 (HCV replicon 1AQ30D; Hepatitis C virus) of the same compound?
A: 0.05 nM

Q: What about the pIC50 (HCV replicon 1B; Hepatitis C virus, replicon 1B) of the same compound?
A: 11.55

Q: `COC(=O)NC(C(=O)N1CCC[C@H]1c1ncc(-c2ccc3c(c2)c(F)c2n3C(c3ccc(C4CC4)s3)Oc3cc(-c4cnc([C@@H]5CCCN5C(=O)[C@@H](NC(=O)OC)C(C)C)[nH]4)cc(F)c3-2)[nH]1)C1CCOC(C)(C)C1` (single isomer, unassigned) [Compound 413] was tested. Which pIC50 (HCV replicon 2B; [1]) did it give?
A: 11.15

Q: And the pIC50 (HCV replicon 1A; [2])?
A: 11.52

Q: What about the pIC50 (HCV replicon 1AY93H; [3]) of the same compound?
A: 10.85

Q: What about the pIC50 (HCV replicon 1AQ30D; [4]) of the same compound?
A: 9.56

Q: And the pIC50 (HCV replicon 1B; [5])?
A: 11.52

Q: Which results are given for `COC(=O)N[C@H](C(=O)N1[C@@H]2C[C@@H]2C[C@H]1c1ncc(-c2ccc3c(c2)OC(c2ccc(C4CC4)s2)n2c-3cc3cc(-c4cnc([C@@H]5C[C@H]6C[C@H]6N5C(=O)[C@@H](NC(=O)OC)C(C)C)[nH]4)ccc32)[nH]1)C(C)C` (single isomer, unassigned) [Compound 8]?
A: pIC50 (HCV replicon 2B; replicon 2B, read-out: 2B IC50): 9.85; pIC50 (HCV replicon 1A; replicon 1A): 10.76; pIC50 (HCV replicon 1AY93H; [8]): 9.48; pIC50 (HCV replicon 1AQ30D; [9]): 9.33; pIC50 (HCV replicon 1B; replicon 1B): 11.57
